The values below come from the METLIN SMRT retention time set (Domingo-Almenara et al. 2019).

A short description of this data set: gradient 5% acetonitrile 3 min, to 50% in 2 min, to 85% in 15 min, held 3 min, 100 µL/min. The conditions noted are these: column: Zorbax Extend-C18 2.1 x 50 mm; eluents: water / acetonitrile, 0.1% formic acid. The gist of the method: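 The mobile phases were water and acetonitrile, each with 0.1% formic acid, pumped at 100 μL/min through a Zorbax Extend-C18 column (2.1 × 50 mm, 1.8 μm). Pure standards were injected as mixtures of ~100 molecules and detected by a quadrupole time-of-flight mass spectrometer in positive and negative ionization mode. Retention time came from computationally picked adduct peaks, each inspected by hand.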
The molecule `Cc1nc(-c2noc(-c3cccnc3)n2)cn1CC(=O)Nc1ccc(F)cc1` gave an RP-LC retention time of 687 s.

Molecule `O=C(Nc1ccc(Br)cc1F)N1CCc2nc[nH]c2C1` registered an RP-LC retention time of 593 s.

In turn, `Cc1cccc(NC(=O)C2CCN(C(=O)C3Sc4ccccc4NC3=O)CC2)c1C` (centres undefined) showed an RP-LC retention time of 753 s.

Molecule `Cc1ccc(-c2nc3cnccn3c2Nc2ccc(F)cc2)cc1` displayed an RP-LC retention time of 904 s.

`O=S(=O)(c1ccccc1)c1cnc2c(N3CCNCC3)cccc2c1` displayed an RP-LC retention time of 691 s.

As to `CCN(C(=O)c1cc2c(s1)N(CC1CC1)CCCC2)C(C)C`, the RP-LC retention time came to 1260 s.

In the case of `COCc1ncc(C)n1C1CCN(C(=O)c2ccc(Cc3c(C)noc3C)o2)C1` (centres undefined), the RP-LC retention time turned out to be 602 s.

On to `OC(CNCC(O)C1CCc2cc(F)ccc2O1)C1CCc2cc(F)ccc2O1` (centres undefined), for which the RP-LC retention time turned out to be 744 s.

`CC(C)n1cnc2c(-c3ccccc3)cn(CC(=O)NCc3ccco3)c2c1=O` gave an RP-LC retention time of 592 s.

Molecule `O=c1n(CC2CC2)nc2n1CCC(NS(=O)(=O)Cc1ccccc1)CC2` (centres undefined) came in with an RP-LC retention time of 704 s.

In turn, `NS(=O)(=O)c1ccc(CNC(=O)c2coc(NC(=O)c3cnccn3)n2)cc1` had an RP-LC retention time of 560 s.

The molecule `Cc1noc(C)c1CC(=O)N1CC(c2nc(-c3cccs3)no2)C1` registered an RP-LC retention time of 690 s.

Molecule `COc1cc(N2CC(CNS(C)(=O)=O)OC2=O)cc(OC)c1OC` (centres undefined) returned an RP-LC retention time of 593 s.

`COc1ccc(-c2nc(NCCN3CCC(C)CC3)c3ccccc3n2)cc1` registered an RP-LC retention time of 580 s.

On to `O=C(NCc1csc(C2CCN(C(=O)c3cc(F)ccc3Cl)CC2)n1)C1CCC1`, for which the RP-LC retention time was determined as 713 s.

Consider `COc1ccc2[nH]c3c(c2c1)CCNC31CCN(Cc2ccc(F)c(F)c2)CC1`, for which the RP-LC retention time came to 587 s.

The molecule `CCCn1c(=O)c(N2CCC(NC(=O)Nc3ccc(Cl)cc3)CC2)nc2ccccc21` gave an RP-LC retention time of 1090 s.

For the molecule `O=C(NCc1cccnc1)c1cc2cc(Cl)ccc2[nH]1`, the RP-LC retention time was 632 s.

Molecule `COCCNC(=O)c1ccc2c(c1)N(Cc1ccc(F)cc1)C(=O)CO2` registered an RP-LC retention time of 717 s.

Take `COc1ccc(NC(=O)N2CCC3(CC2)N=C(c2cccc(F)c2)C(=O)N3)c(OC)c1`: the RP-LC retention time stood at 786 s.

The molecule `CSc1cccc(NC(=O)Cc2nnc(-c3ccc4ncccc4c3)o2)c1` came in with an RP-LC retention time of 753 s.

`CCCNC(=O)C1CCCN(c2ccc(SCC(=O)Nc3cc(C)c(Cl)cc3OC)nn2)C1` (centres undefined): the RP-LC retention time stood at 838 s.

The molecule `CCc1ccc(NC(=O)Cn2c(=O)n(-c3ccccc3)c(=O)c3c2cc(C)n3C)cc1` returned an RP-LC retention time of 886 s.

As to `Cc1cc(N(C)C)n2nc(CN3CCC(Cc4ccccc4)CC3)nc2n1`, the RP-LC retention time came out at 637 s.

For `COc1cc(OC)c(NC(=O)N2CC(Cc3nc(-c4cnccn4)no3)C2)cc1Cl`, the RP-LC retention time was determined as 733 s.

On to `Cc1nc(C)c(C(=O)N(C)C2CCc3nn(CC4CC4)c(=O)n3CC2)s1` (centres undefined), for which the RP-LC retention time worked out at 626 s.

`CC(=O)Nc1nsc(N2CCC(C(=O)N3CCN(c4ccc(C)cc4)CC3)CC2)n1` displayed an RP-LC retention time of 675 s.

`Cc1cccc(NC(=O)Cn2ccc3sccc3c2=O)c1C` yielded an RP-LC retention time of 741 s.

`O=C(NCc1ccccc1F)C1CCCN(c2nc3ccsc3c(=O)n2Cc2ccccc2)C1` (centres undefined) gave an RP-LC retention time of 943 s.

Take `CC(C)NC(=O)C1CCN(C(=O)c2cc(-c3ccncc3)n[nH]2)CC1`: the RP-LC retention time came out at 556 s.

`CCOc1ccc(N2C=C(C(=O)OC)S(=O)(=O)c3ccc(Br)cc32)cc1` displayed an RP-LC retention time of 1040 s.

With `COc1cc(NC(=O)c2ccc(-c3ccc(Cl)cc3)o2)cc(OC)c1`, the RP-LC retention time amounted to 1170 s.

As to `Cc1cccc(NC(=O)CC(=O)Nc2ccc3nc4n(c(=O)c3c2)CCCCC4)n1`, the RP-LC retention time is 624 s.

`COc1cc([C@@H]2c3cc4c(cc3[C@H](O)[C@@H](CO)[C@@H]2C(=O)NCCc2ccccc2)OCO4)cc(OC)c1OC` had an RP-LC retention time of 745 s.

For the molecule `CCCCN(C)C(=O)c1cc(NC(=O)C(C)(C)C)cnc1N1CCNCC1`, the RP-LC retention time was determined as 622 s.

`Cc1cccc(-c2nnc(-c3ccc(Cl)c(S(=O)(=O)N4CCCC4)c3)o2)c1` yielded an RP-LC retention time of 1150 s.

The molecule `CCc1nc(OCC(=O)Nc2ccccc2Cl)c2ccccc2n1` yielded an RP-LC retention time of 831 s.

In turn, `CCS(=O)(=O)Nc1cccc(OCc2nnc(-c3ccc(C)cc3)o2)c1` registered an RP-LC retention time of 867 s.

The molecule `CCOC(=O)C1CCCN(C(=O)Cn2c3ccccc3c3cnn(C)c(=O)c32)C1` (centres undefined) displayed an RP-LC retention time of 826 s.

As to `C=CCN1C(=O)COc2ccc(-c3csc(NC(=O)c4ccc(F)cc4)n3)cc21`, the RP-LC retention time worked out at 1010 s.

`CCc1onc(C)c1C1CCCN1C(=O)CCc1ccc(OC)cc1` (centres undefined) showed an RP-LC retention time of 839 s.

Regarding `CCC(=O)N1CCc2sc(C(=O)NCc3ccc(Cl)cc3)cc2C1`, the RP-LC retention time worked out at 802 s.

`O=C(CSc1ccc(N2CCCC(C(=O)NC3CC3)C2)nn1)Nc1cc(F)ccc1F` (centres undefined) registered an RP-LC retention time of 617 s.

Take `Cn1cnc(S(=O)(=O)N2CC(c3nc(CCOCc4ccccc4)no3)C2)c1`: the RP-LC retention time came to 745 s.

With `O=C(c1cccc(Cl)c1)N1CCC(Cc2nnc(-c3ccccc3)o2)CC1`, the RP-LC retention time was found to be 891 s.

Molecule `COc1cc(-c2noc(-c3ncn4c3COC(c3ccc(F)cc3)C4)n2)cc(OC)c1OC` (centres undefined) gave an RP-LC retention time of 976 s.

`Cc1ccccc1Cn1nnc2cc(C(=O)N3CCN(c4ncccn4)CC3)ccc21` had an RP-LC retention time of 819 s.

`O=C(NCC1CCCO1)C(=O)NCC(c1cccs1)S(=O)(=O)c1ccc(F)cc1` (centres undefined): the RP-LC retention time is 749 s.

For the molecule `CC1(C(=O)NCc2ccc(F)cc2)Cn2cnc(C(=O)NCc3ccc(F)cc3)c2C(=O)N1C1CC1` (centres undefined), the RP-LC retention time stood at 777 s.

The molecule `O=C(NCCn1nnc2cc(C(=O)N3CCCC3)ccc21)Nc1ccc(Br)cc1` yielded an RP-LC retention time of 704 s.

Molecule `Cc1cccc(CC(=O)N2C[C@@H]3C[C@H]2C[C@@H]3NS(=O)(=O)c2ccccc2)c1` gave an RP-LC retention time of 832 s.

The molecule `COc1cccc(S(=O)(=O)N2CCN(c3cc(C)nc(N4CCOCC4)n3)CC2)c1` displayed an RP-LC retention time of 668 s.

`CCN1CCN(S(=O)(=O)c2cc(-c3[nH]ncc3C(=O)N3CCCC3)oc2C)CC1` had an RP-LC retention time of 577 s.

For the molecule `O=C(Cn1nc2c(cc1=O)CCCC2)NCCc1c[nH]c2ccc(F)cc12`, the RP-LC retention time worked out at 753 s.

`COc1ccc(-c2cn3c(CC(=O)Nc4ccc(F)cc4Cl)csc3n2)cc1` showed an RP-LC retention time of 795 s.

`O=C(Nc1ccccc1Cl)C1CCCN(C(=O)Cc2cccc3ccccc23)C1` (centres undefined) registered an RP-LC retention time of 995 s.

The molecule `Cc1ccnc(NC(=O)C2CCN(S(=O)(=O)c3ccc(-c4noc(C5CC5)n4)cc3)CC2)c1` registered an RP-LC retention time of 794 s.

The molecule `CCCNc1cc(N2CCCC(CCC(=O)Nc3ccccc3CC)C2)ncn1` (centres undefined) showed an RP-LC retention time of 735 s.

Regarding `COc1ccc(N2CC(c3nc(-c4ccccc4Cl)no3)CC2=O)cc1OC` (centres undefined), the RP-LC retention time came out at 878 s.

With `Cc1cccc(C(=O)Nc2nc(-c3ccc4c(c3)NC(=O)C(C)O4)c(C)s2)c1` (centres undefined), the RP-LC retention time came out at 979 s.

In turn, `CN1CCN(C(=O)c2ccc(CN3CCN(Cc4ccc(F)cc4)C(=O)C3=O)cc2)CC1` had an RP-LC retention time of 592 s.

Consider `CC(Oc1ccccc1F)C(=O)Nc1nc(-c2ccc(S(=O)(=O)N3CCOCC3)cc2)cs1` (centres undefined), for which the RP-LC retention time worked out at 1010 s.

`CCOC(=O)NCCS(=O)(=O)N1CCN(c2ccccc2F)CC1` displayed an RP-LC retention time of 774 s.

`CN1C(=O)CCS(=O)(=O)C1c1ccc(Cl)cc1` (centres undefined) showed an RP-LC retention time of 759 s.

Molecule `Cc1cc(C)c2c(-n3cccc3)nn(CC(=O)NC(C)CCc3ccccc3)c2n1` (centres undefined) had an RP-LC retention time of 1080 s.

With `Cc1nnsc1C(=O)OCc1cc(-c2ccco2)on1`, the RP-LC retention time was found to be 850 s.

Molecule `O=C(O)c1cc(-c2cccs2)[nH]c(=O)n1` came in with an RP-LC retention time of 551 s.

`COc1ccc(-c2ncc3c(n2)CCN(C(=O)Nc2ccccc2Br)C3)cc1` had an RP-LC retention time of 961 s.

In turn, `Cc1ccc(N2CCC(NC(=O)c3ccc(Br)o3)C2=O)cc1` (centres undefined) came in with an RP-LC retention time of 812 s.

Turning to `Cc1ccc(CN2CCN(C3CCN(C(=O)Nc4ccc(C)c(F)c4)CC3)C(=O)C2=O)cc1`, the RP-LC retention time worked out at 817 s.

On to `COc1ccc2c(c1)N(CC(C)CN(C)C)c1ccccc1S2` (centres undefined), for which the RP-LC retention time was determined as 804 s.

As for `CC(=O)N(C1CCOCC1)C1CCN(S(=O)(=O)c2cc(F)ccc2C)CC1`, the RP-LC retention time came to 792 s.

Take `CCOc1ccc(NC(=O)C2CCCN(C)C2)cc1` (centres undefined): the RP-LC retention time amounted to 643 s.

`CC(C)c1ccc(S(=O)(=O)N2CCc3c(c(-c4nnc(-c5ccccc5)o4)nn3C)C2)cc1` registered an RP-LC retention time of 1110 s.

In the case of `COCCn1ncc(N2CCC(C(=O)NCc3ccc(C)o3)C2)cc1=O` (centres undefined), the RP-LC retention time is 650 s.

`CCc1nc2cc(N3CCC(C(=O)NCc4cc(F)ccc4F)CC3)cnc2nc1CC` came in with an RP-LC retention time of 838 s.

`Cc1cccc(C)c1Nc1c(-c2ccc(Cl)cc2)nc2ncccn12`: the RP-LC retention time worked out at 919 s.

On to `CCOc1cccc(CN2C(=O)C3(CCOCC3)CC2c2nnnn2C(C)(C)C)c1` (centres undefined), for which the RP-LC retention time was determined as 820 s.

The molecule `CCOc1cccc(C2c3[nH]c4ccccc4c3CCN2C(=O)c2cccnc2)c1` (centres undefined) returned an RP-LC retention time of 968 s.
